Assays:
[1] = tested on: hairy beggarticks; experiment: Test E preemergence; assay type: in vivo, Bidens pilosa; details: for Beggarticks plant response rating: scale 0 to 100 (0 no effect, 100 complete control)
Source text: (§1) Seeds of plant species selected from corn (Zea mays), soybean (Glycine max), velvetleaf (Abutilon theophrasti), lambsquarters (Chenopodium album), wild poinsettia (Euphorbia heterophylla), palmer pigweed (Amaranthus palmeri), waterhemp (common waterhemp, Amaranthus rudis), surinam grass (Brachiaria decumbens), large (Lg) crabgrass (Digitaria sanguinalis), Brazilian crabgrass (Digitaria horizontalis), fall panicum (Panicum dichotomiflorum), giant foxtail (Setaria faberii), green foxtail (Setaria viridis), goosegrass (Eleusine indica), johnsongrass (Sorghum halepense), ragweed (common ragweed, Ambrosia elatior), barnyardgrass (Echinochloa crus-galli), sandbur (southern sandbur, Cenchrus echinatus), arrowleaf sida (Sida rhombifolia), Italian ryegrass (Lolium multiflorum), dayflower (Virginia (VA) dayflower, Commelina virginica), field bindweed (Convolvulus arvensis), morningglory (Ipomoea coccinea), nightshade (eastern black nightshade, Solanum ptycanthum), kochia (Kochia scoparia), yellow nutsedge (Cyperus esculentus), cocklebur (common cocklebur, Xanthium strumarium), smartweed (ladysthumb smartweed, and hairy beggarticks (Bidens pilosa), were planted into a silt loam soil and treated preemergence with test chemicals formulated in a non-phytotoxic solvent mixture which included a surfactant.
(§2) At the same time, plants from these crop and weed species and also horseweed (Canada horseweed, Conyza canadensis), waterhemp_RES1, (ALS & Triazine resistant common waterhemp, Amaranthus rudis), and waterhemp_RES2, (ALS & HPPD resistant common waterhemp, Amaranthus rudis) were planted in pots containing Redi-Earth® planting medium (Scotts Company, 14111 Scottslawn Road, Marysville, Ohio 43041) comprising spaghnum peat moss, vermiculite, wetting agent and starter nutrients were treated with postemergence applications of test chemicals formulated in the same manner. Plants ranged in height from 2 to 18 cm for postemergence treatments (1- to 4-leaf stage). Treated plants and controls were maintained in a greenhouse for 14 to 21 days, after which time all species were compared to controls and visually evaluated. Plant response ratings, summarized in Table E, are based on a scale of 0 to 100 where 0 is no effect and 100 is complete control. A dash (-) response means no test result.

[2] = tested on: yellow nutsedge; experiment: Test E preemergence; assay type: in vivo, Cyperus esculentus; details: for Nutsedge, Yellow plant response rating: scale 0 to 100 (0 no effect, 100 complete control)
Source text: as §1, §2

[3] = tested on: dayflower; experiment: Test E preemergence; assay type: in vivo, Commelina virginica; details: for Dayflower, VA plant response rating: scale 0 to 100 (0 no effect, 100 complete control)
Source text: as §1, §2

[4] = tested on: fall panicum; experiment: Test E preemergence; assay type: in vivo, Panicum dichotomiflorum; details: for Panicum, Fall plant response rating: scale 0 to 100 (0 no effect, 100 complete control)
Source text: as §1, §2

[5] = tested on: rice; experiment: Test C flooded paddy test; assay type: in vivo, Oryza sativa; details: Flood, scale 0 to 100 (0 no effect, 100 complete control), 13 to 15 days
Summary of the method: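 Visual injury ratings against untreated controls, taken 13 to 15 days after compound was added to paddy water standing 3 cm above the soil.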

[6] = tested on: fall panicum; experiment: Test E postemergence; assay type: in vivo, Panicum dichotomiflorum
Source text: as §1, §2

[7] = tested on: soybean; experiment: Test E postemergence; assay type: in vivo, Glycine max
Source text: as §1, §2

[8] = preemergence, 125 g ai/ha, scale 0 to 100, 0 no effect, 100 complete control
[9] = 125 g ai/ha, scale 0 to 100, 0 no effect, 100 complete control
[10] = Panicum dichotomiflorum, post-emergence, Postemergence, 62 g ai/ha, scale 0 to 100, read-out: Plant response rating, Panicum, Fall
[11] = Panicum dichotomiflorum, post-emergence, Postemergence, 125 g ai/ha, scale 0 to 100, read-out: Plant response rating, Panicum, Fall
[12] = Panicum dichotomiflorum, post-emergence, postemergence, 16 g ai/ha, scale 0 to 100, 0 no effect, 100 complete control, read-out: Plant response rating, Panicum, Fall
[13] = Glycine max, post-emergence, Postemergence, 31 g ai/ha, scale 0 to 100
[14] = Glycine max, post-emergence, Postemergence, 62 g ai/ha, scale 0 to 100
[15] = Glycine max, post-emergence, Postemergence, 125 g ai/ha, scale 0 to 100
[16] = Glycine max, post-emergence, postemergence, 16 g ai/ha, scale 0 to 100, 0 no effect, 100 complete control
[17] = 8 g ai/ha, scale 0 to 100, 0 is no effect, 100 is complete control
[18] = 250 g ai/ha, scale 0 to 100, 0 no effect, 100 complete control
[19] = Postemergence, 31 g ai/ha, scale 0 to 100
[20] = Postemergence, 62 g ai/ha, scale 0 to 100
[21] = Postemergence, 125 g ai/ha, scale 0 to 100
[22] = postemergence, 16 g ai/ha, scale 0 to 100, 0 no effect, 100 complete control
[23] = postemergence, 8 g ai/ha, scale 0 to 100, 0 no effect, 100 complete control

Cc1cnc(Oc2cccc(C#N)c2-n2cc(C#N)cn2)nc1 [Compound 90]
Beggarticks plant response rating ([1]; 16 g ai/ha, preemergence): 0
Beggarticks plant response rating ([1]; 31 g ai/ha, preemergence): 5
Plant response rating, Beggarticks ([1]; Preemergence, 62 g ai/ha, scale 0 to 100, 0 no effect, 100 complete control): 10
Plant response rating, Beggarticks [1, 8]: 30
Nutsedge, Yellow plant response rating ([2]; 16 g ai/ha): 0
Nutsedge, Yellow plant response rating ([2]; 31 g ai/ha): 0
Nutsedge, Yellow plant response rating ([2]; 62 g ai/ha): 0
Plant response rating, Nutsedge, Yellow [2, 9]: 0
Dayflower, VA plant response rating ([3]; 16 g ai/ha): 0
Dayflower, VA plant response rating ([3]; 31 g ai/ha): 0
Plant response rating, Dayflower, VA [3, 9]: 0
Panicum, Fall plant response rating ([4]; 16 g ai/ha): 0
Panicum, Fall plant response rating ([4]; 31 g ai/ha): 0
Panicum, Fall plant response rating ([4]; 62 g ai/ha): 0
Plant response rating, Panicum, Fall [4, 9]: 80

FC(F)c1cnn(-c2ccccc2Oc2ncc(Cl)cn2)c1 [Compound 80, 5-chloro-2-[2-[4-(difluoromethyl)-1H-pyrazol-1-yl]phenoxy]pyrimidine]
Plant response rating, Rice ([5]; 250 g ai/ha): 0
Plant response rating, Rice ([5]; 500 g ai/ha): 0
Plant response rating, Rice ([5]; 1000 g ai/ha): 0
Plant response rating, Rice ([5]; 2000 g ai/ha): 0

Clc1cnn(-c2ccccc2Oc2ncc(Br)cn2)c1 [Compound 5, 5-bromo-2-[2-(4-chloro-1H-pyrazol-1-yl)phenoxy]pyrimidine]
pest or weed control at 62 g/ha [6, 10]: 0%
pest or weed control at 125 g/ha [6, 11]: 0%
pest or weed control at 250 g/ha ([6]; Panicum dichotomiflorum, post-emergence, Postemergence, 250 g ai/ha, scale 0 to 100, read-out: Plant response rating, Panicum, Fall): 0%
pest or weed control at 16 g/ha [6, 12]: 0%
plant response (crop injury) rating, soybean, 0-100 scale at 31 g/ha [7, 13]: 30%
plant response (crop injury) rating, soybean, 0-100 scale at 62 g/ha [7, 14]: 70%
plant response (crop injury) rating, soybean, 0-100 scale at 125 g/ha [7, 15]: 80%
plant response (crop injury) rating, soybean, 0-100 scale at 250 g/ha ([7]; Glycine max, post-emergence, Postemergence, 250 g ai/ha, scale 0 to 100): 95%
plant response (crop injury) rating, soybean, 0-100 scale at 16 g/ha [7, 16]: 20%

NC(=S)c1cccc(Oc2ncc(Cl)cn2)c1-n1cc(Cl)cn1 [Compound 292]
Plant response rating, Beggarticks ([1]; 8 g ai/ha, preemergence, scale 0 to 100, 0 is no effect, 100 is complete control): 0
Beggarticks plant response rating ([1]; 16 g ai/ha, preemergence): 0
Beggarticks plant response rating ([1]; 31 g ai/ha, preemergence): 15
Beggarticks plant response rating ([1]; 62 g ai/ha, preemergence): 15
Plant response rating, Beggarticks [1, 8]: 35
Plant response rating, Nutsedge, Yellow [2, 17]: 0
Nutsedge, Yellow plant response rating ([2]; 31 g ai/ha): 0
Nutsedge, Yellow plant response rating ([2]; 62 g ai/ha): 15
Plant response rating, Nutsedge, Yellow [2, 9]: 35
Plant response rating, Dayflower, VA [3, 17]: 20
Dayflower, VA plant response rating ([3]; 16 g ai/ha): 20
Dayflower, VA plant response rating ([3]; 31 g ai/ha): 20
Dayflower, VA plant response rating ([3]; 62 g ai/ha): 35
Plant response rating, Dayflower, VA [3, 9]: 85
Plant response rating, Panicum, Fall [4, 17]: 0
Panicum, Fall plant response rating ([4]; 31 g ai/ha): 0
Panicum, Fall plant response rating ([4]; 62 g ai/ha): 90
Plant response rating, Panicum, Fall [4, 9]: 100

Cc1cnc(Oc2cccc(C#N)c2-n2cc(C(F)(F)F)cn2)nc1 [Compound 180]
Beggarticks plant response rating ([1]; 31 g ai/ha, preemergence): 10
Beggarticks plant response rating ([1]; 62 g ai/ha, preemergence): 20
Plant response rating, Beggarticks [1, 8]: 40
Plant response rating, Beggarticks ([1]; preemergence, 250 g ai/ha, scale 0 to 100, 0 no effect, 100 complete control): 90
Nutsedge, Yellow plant response rating ([2]; 31 g ai/ha): 0
Nutsedge, Yellow plant response rating ([2]; 62 g ai/ha): 30
Plant response rating, Nutsedge, Yellow [2, 9]: 60
Plant response rating, Nutsedge, Yellow [2, 18]: 75
Dayflower, VA plant response rating ([3]; 31 g ai/ha): 0
Dayflower, VA plant response rating ([3]; 62 g ai/ha): 35
Plant response rating, Dayflower, VA [3, 9]: 85
Plant response rating, Dayflower, VA [3, 18]: 90
Panicum, Fall plant response rating ([4]; 31 g ai/ha): 95
Panicum, Fall plant response rating ([4]; 62 g ai/ha): 100
Plant response rating, Panicum, Fall [4, 9]: 100
Plant response rating, Panicum, Fall [4, 18]: 100

Clc1cnc(Oc2cccc(Cl)c2-n2cc(I)cn2)nc1 [Compound 181]
Plant response rating, Panicum, Fall [6, 19]: 20
Plant response rating, Panicum, Fall [6, 20]: 50
Plant response rating, Panicum, Fall [6, 21]: 30
Plant response rating, Panicum, Fall [6, 22]: 20
Plant response rating, Soybean [7, 19]: 80
Plant response rating, Soybean [7, 20]: 90
Plant response rating, Soybean [7, 21]: 95
Plant response rating, Soybean [7, 22]: 50

FC(F)c1cnn(-c2c(Cl)cccc2Oc2ncc(Cl)cn2)c1 [Compound 192]
Plant response rating, Rice ([5]; 31 g ai/ha): 0
Plant response rating, Rice ([5]; 62 g ai/ha): 0
Plant response rating, Rice ([5]; 125 g ai/ha): 0
Plant response rating, Rice ([5]; 250 g ai/ha): 0

Fc1cccc(Oc2ncc(Cl)cn2)c1-n1cc(Cl)cn1 [Compound 177]
Plant response rating, Rice ([5]; 31 g ai/ha): 0
Plant response rating, Rice ([5]; 62 g ai/ha): 0
Plant response rating, Rice ([5]; 125 g ai/ha): 10
Plant response rating, Rice ([5]; 250 g ai/ha): 10

N#Cc1cccc(Oc2ncc(F)cn2)c1-n1cc(C(F)(F)F)cn1 [Compound 79, 3-[(5-fluoro-2-pyrimidinyl)oxy]-2-[4-(trifluoromethyl)-1H-pyrazol-1-yl]benzonitrile]
pest or weed control at 31 g/ha ([6]; Panicum dichotomiflorum, post-emergence, Postemergence, 31 g ai/ha, scale 0 to 100, read-out: Plant response rating, Panicum, Fall): 35%
pest or weed control at 62 g/ha [6, 10]: 30%
pest or weed control at 125 g/ha [6, 11]: 30%
pest or weed control at 16 g/ha [6, 12]: 20%
plant response (crop injury) rating, soybean, 0-100 scale at 31 g/ha [7, 13]: 70%
plant response (crop injury) rating, soybean, 0-100 scale at 62 g/ha [7, 14]: 95%
plant response (crop injury) rating, soybean, 0-100 scale at 125 g/ha [7, 15]: 95%
plant response (crop injury) rating, soybean, 0-100 scale at 16 g/ha [7, 16]: 60%

FC(F)(F)c1cnn(-c2c(Br)cccc2Oc2ncc(Cl)cn2)c1 [Compound 191]
Plant response rating, Panicum, Fall [6, 19]: 5
Plant response rating, Panicum, Fall [6, 20]: 10
Plant response rating, Panicum, Fall [6, 21]: 20
Plant response rating, Panicum, Fall [6, 23]: 0
Plant response rating, Panicum, Fall [6, 22]: 0
Plant response rating, Soybean [7, 19]: 60
Plant response rating, Soybean [7, 20]: 50
Plant response rating, Soybean [7, 21]: 95
Plant response rating, Soybean [7, 23]: 20
Plant response rating, Soybean [7, 22]: 30
Plant response rating, Rice ([5]; 31 g ai/ha): 0
Plant response rating, Rice ([5]; 62 g ai/ha): 0
Plant response rating, Rice ([5]; 125 g ai/ha): 0
Plant response rating, Rice ([5]; 250 g ai/ha): 0

N#Cc1cccc(Oc2ncc(Cl)cn2)c1-n1cc(OC(F)F)cn1 [Compound 97]
Plant response rating, Rice ([5]; 31 g ai/ha): 0
Plant response rating, Rice ([5]; 62 g ai/ha): 0
Plant response rating, Rice ([5]; 125 g ai/ha): 0
Plant response rating, Rice ([5]; 250 g ai/ha): 0

Clc1cnc(Oc2ccccc2-n2cc(Br)nn2)nc1 [Compound 223]
Plant response rating, Panicum, Fall [6, 19]: 0
Plant response rating, Panicum, Fall [6, 20]: 0
Plant response rating, Panicum, Fall [6, 21]: 0
Plant response rating, Panicum, Fall [6, 23]: 0
Plant response rating, Panicum, Fall [6, 22]: 0
Plant response rating, Soybean [7, 19]: 95
Plant response rating, Soybean [7, 20]: 98
Plant response rating, Soybean [7, 21]: 98
Plant response rating, Soybean [7, 23]: 30
Plant response rating, Soybean [7, 22]: 60

From patent publication US9695155B2, “Herbicidal substituted pyrimidinyloxy benzene compounds” (E. I. DU PONT DE NEMOURS AND COMPANY, priority 2013, dated 2017)
